Test results published in ChEMBL document CHEMBL1201862, “PubChem BioAssay data set” (2004).
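Interpolation was linear, between the two tested concentrations surrounding the appropriate level; five concentrations were tested over 48 hours in 96-well plates. GI50 = concentration required for 50% inhibition of growth.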 Active and inactive are the calls of the source. Rule as the data show it: active = GI50 up to about 1.1 µM and inactive = higher.

What was measured:
Assay in all cases: DTP human tumour cell line panel, 48 h
[1] = test system: SNB-19
[2] = test system: SK-MEL-5
[3] = test system: MDA-MB-231
[4] = test system: SW-620
[5] = test system: PC-3
[6] = test system: HOP-62
[7] = test system: NCI/ADR-RES
[8] = test system: HCT-116
[9] = test system: OVCAR-8
[10] = test system: SK-MEL-2
[11] = test system: ACHN
[12] = test system: HOP-92
[13] = test system: IGROV-1
[14] = test system: UACC-257
[15] = test system: MDA-MB-435
[16] = test system: EKVX
[17] = test system: NCI-H226
[18] = test system: BT-549
[19] = test system: T47D

| SMILES | GI50 [1] | GI50 [2] | GI50 [3] | GI50 [4] | GI50 [5] | GI50 [6] | GI50 [7] | GI50 [8] | GI50 [9] | GI50 [10] | GI50 [11] | GI50 [12] | GI50 [13] | GI50 [14] | GI50 [15] | GI50 [16] | GI50 [17] | GI50 [18] | GI50 [19] |
| --- | --- | --- | --- | --- | --- | --- | --- | --- | --- | --- | --- | --- | --- | --- | --- | --- | --- | --- | --- |
| COc1cc(/C=C2\S/C(=N/Nc3nc(-c4ccc(Br)cc4)cs3)NC2=O)cc(OC)c1OC | 4.74 µM (inactive) | 5.02 µM (inactive) | 14.3 µM (inactive) | 8.55 µM (inactive) | 4.03 µM (inactive) | 10.5 µM (inactive) | 15.9 µM (inactive) | 4.49 µM (inactive) | 14.5 µM (inactive) | 15.1 µM (inactive) | 11 µM (inactive) | 3.63 µM (inactive) | 12 µM (inactive) | 18.2 µM (inactive) | 15.5 µM (inactive) | 7.8 µM (inactive) | 4.09 µM (inactive) | 7.82 µM (inactive) |  |
| CC(=O)Oc1c(C)cc2c(c1C)C(C)(C)CN2C(=O)C(C)(C)C | > 100 µM (inactive) | 42.3 µM (inactive) | > 100 µM (inactive) | > 100 µM (inactive) | 35.1 µM (inactive) | > 100 µM (inactive) | 45.3 µM (inactive) | 67.9 µM (inactive) | > 100 µM (inactive) | > 100 µM (inactive) | > 100 µM (inactive) | 20.1 µM (inactive) | > 100 µM (inactive) | > 100 µM (inactive) | 77.8 µM (inactive) | > 100 µM (inactive) | 38.5 µM (inactive) |  | 31.6 µM (inactive) |
| CCCCCCCCCCCCC/C=C(/COCC[N+](C)(C)C)OC(C)=O.CCCCCCCCCCCCCC/C(=C/OCC[N+](C)(C)C)OC(C)=O | 1.47 µM (inactive) | 2.54 µM (inactive) | 1.78 µM (inactive) | 2.92 µM (inactive) | 2.08 µM (inactive) | 1.65 µM (inactive) | 17.6 µM (inactive) | 0.643 µM (active) | 0.944 µM (active) |  | 1.65 µM (inactive) | 1.16 µM (inactive) | 1.69 µM (inactive) | 2.99 µM (inactive) | 2.58 µM (inactive) | 3.1 µM (inactive) | 1.57 µM (inactive) | 1.45 µM (inactive) |  |
| O=c1[nH]c(Nc2nc3ccccc3[nH]2)nc2c1CCC2 | > 100 µM (inactive) | > 100 µM (inactive) | 14.8 µM (inactive) | > 100 µM (inactive) | > 100 µM (inactive) | 49.9 µM (inactive) | > 100 µM (inactive) | > 100 µM (inactive) | 42.6 µM (inactive) | > 100 µM (inactive) | > 100 µM (inactive) | 30.8 µM (inactive) | > 100 µM (inactive) | > 100 µM (inactive) | > 100 µM (inactive) |  | 63.1 µM (inactive) | 35.5 µM (inactive) |  |
| CCOC(=O)c1cnc2oc(/C=N/N3CC(CN4CCOCC4)OC3=O)cc2c1O (stereo unspecified) | > 100 µM (inactive) | > 100 µM (inactive) | > 100 µM (inactive) | > 100 µM (inactive) | > 100 µM (inactive) | > 100 µM (inactive) | > 100 µM (inactive) | > 100 µM (inactive) | > 100 µM (inactive) | > 100 µM (inactive) | > 100 µM (inactive) | > 100 µM (inactive) | > 100 µM (inactive) | > 100 µM (inactive) | > 100 µM (inactive) | > 100 µM (inactive) | > 100 µM (inactive) |  | > 100 µM (inactive) |
| N#Cc1nc(CCC(C(=O)O)N2C(=O)c3ccccc3C2=O)oc1N (stereo unspecified) | > 100 µM (inactive) | > 100 µM (inactive) | > 100 µM (inactive) | > 100 µM (inactive) | > 100 µM (inactive) | > 100 µM (inactive) | > 100 µM (inactive) | > 10 µM (inactive) | > 100 µM (inactive) | > 100 µM (inactive) | > 100 µM (inactive) | > 100 µM (inactive) | > 100 µM (inactive) | > 100 µM (inactive) | > 100 µM (inactive) | > 100 µM (inactive) | > 100 µM (inactive) |  | > 100 µM (inactive) |
| c1ccc2c(c1)-c1ccccc1C2NC1=NCCO1 | 36.6 µM (inactive) | 15.7 µM (inactive) | 24.3 µM (inactive) | 54.2 µM (inactive) | 20.5 µM (inactive) | 22.5 µM (inactive) | 23.4 µM (inactive) | 16.7 µM (inactive) | 20.8 µM (inactive) | 18.8 µM (inactive) | 28.8 µM (inactive) | 13.9 µM (inactive) | 16.4 µM (inactive) |  | 23 µM (inactive) | 40.6 µM (inactive) | 23.8 µM (inactive) |  | 39.4 µM (inactive) |
| O=C(Nc1ccccc1)OCc1nc2c([nH]1)C(=O)C=CC2=O | 13.8 µM (inactive) | 14.3 µM (inactive) |  | 2.62 µM (inactive) |  | > 100 µM (inactive) |  | 14.9 µM (inactive) | 15.5 µM (inactive) | 19.8 µM (inactive) | 12.6 µM (inactive) | 24.6 µM (inactive) | 16.9 µM (inactive) | 3.42 µM (inactive) |  | 20.7 µM (inactive) | 18.7 µM (inactive) |  |  |
